Reference: patent publication US12642860B2, “Filamentous nanostructures and their use for treatment of pulmonary disease” (THE JOHNS HOPKINS UNIVERSITY, priority 2019, dated 2026)
Non-standard residues stand in square brackets, D forms with d. Residues, ends and D or L forms follow the SMILES beside them. ξ: configuration not given here. *: point of attachment. X2 = CCCC1O[C@@H]2C[C@H]3[C@@H]4CCC5=CC(=O)C=C[C@]5(C)[C@H]4[C@@H](O)CC3(C)C2(C(=O)COC(=O)OCCS*)O1; Lauroyl = CCCCCCCCCCCC(=O)*; X1 = COCCOCCOCCOCCOCCC(=O)*; ξE = NC(CCC(=O)O)C(=O)O; ξQ = NC(=O)CCC(N)C(=O)O; ξD = NC(CC(=O)O)C(=O)O; ξL = CC(C)CC(N)C(=O)O; ξK = NCCCCC(N)C(=O)O; ξV = CC(C)C(N)C(=O)O; ξP = O=C(O)C1CCCN1

Experiments:
Assay type in all cases: physicochemical
[1] = TEM morphology of filaments after jet nebulization; settings: 500 μM, jet nebulization 10 min, mist and reservoir
Description: (§1) Since the supramolecular filament compositions are several microns long and are formed through non-covalent interactions, their structural integrity may be influenced by a number of factors during nebulization, such as agitation and aerosol formation. Thus, we first assessed the structural stability of these systems while traveling in aerosol droplets generated by a jet nebulizer. Nebulizers are commonly employed medical devices for producing liquid aerosol droplets containing therapeutics via high velocity airflow through the device nozzle. Droplets very large in diameter impact baffles and/or the walls of the nebulizer and are recycled back into the device's reservoir, but droplets small enough to circumvent these barriers (typically ranging in diameter from 1 to 10 μm) exit the device as a respirable aerosol. Therefore, we characterized two groups of structures after nebulization: the exiting mist and the leftover solution in the reservoir. Filament compositions in solutions diluted down to 500 µM of the different PAs were loaded into a jet nebulizer and nebulized for 10 minutes, and the mist and leftover reservoir solutions were collected and subsequently analyzed with TEM. […] For both the nebulized and reservoir populations, we see the introduction of short bundled fibrils, worm-like micelles, and spherical micelles (spherical micelles depicted in FIG. 7).
After encapsulation, we used TEM imaging to confirm self-assembly of the system into filamentous nanostructures. […] Spherical micelles are still observed, but the fibril and worm-like structures are not. […] In terms of delivering therapeutics in an aerosol, this presents an effective strategy for improving structural stability of supramolecular peptide-based assemblies during nebulization.

[2] = Contour length analysis of filaments in TEM images after jet nebulization; settings: jet nebulization 10 min, mean±SD; for average contour length, exiting the nebulizer as a mist: nebulized mist population; for average contour length, leftover in the reservoir: reservoir population
Description: FIGS. 12A-12F are contour length reduction analyses of (12A) EPA, (12B) OPA, and (12C) KPA filaments after nebulization, comparing the nebulized (red) and reservoir (blue) populations' size distributions (20 bins, 50 nm each). Nebulized populations measured shorter on average compared to the reservoir populations. Average contour lengths (μ) given as mean±SD alongside medians (M) for each population (****p<0.0001, two-tail unpaired t test; EPA: nN=316, nR=316; OPA: nN=311, nR=339; KPA: nN=377, nR=369). Dynamic light scattering measurements of (12D) EPA, (12E) OPA, and (12F) KPA over the course of a 10 min nebulization event as collected every 2 min, showing consistent filament breakdown over time. Data are normalized to molar scattering rate of filaments at t=0 min and given as mean±SD (p>0.05, two-way ANOVA, n=3).
as §1
Filaments before nebulization were not measured, as accurate contour lengths could not be determined, since the filaments are over several microns long. For all three systems, the nebulized population was measured to be on average shorter than its respective reservoir population. […] The EPA, OPA, and KPA filaments averaged around 287±147 nm, 174±103 nm, and 133±108 nm, respectively, exiting the nebulizer as a mist and around 360±177 nm, 206±88 nm, and 196±113 nm, respectively, leftover in the reservoir. For the KPA system, spherical micelles were omitted from this analysis as they bias the distribution representation toward non-filamentous structures.

[3] = Dynamic light scattering molar scattering rate during nebulization; settings: measured every 2 min for 10 min nebulization
Method: We next investigated whether this filament breakdown was consistent over the course of a nebulization event. We measured the molar scattering rate of the filaments with dynamic light scattering (DLS) every 2 min for a total 10 min as a measure of assembly size, as larger filamentous assemblies will scatter light more strongly than smaller ones. The molar scattering rate represents the scattering rate normalized to the sample concentration and is used here, since the DLS software uses models for fitting spherical particles and our structures are anisotropic. […] In terms of delivering supramolecular filament systems with a jet nebulizer for treatment administration, the consistent filament breakdown over the course of a nebulization event is promising in regard to aerosol delivery, as the filaments are released reliably with a relatively uniform size drop over time from the device.

[4] = Critical assembly concentration (CAC) by Nile Red assay; settings: in water
Description: FIGS. 17A-17C depict the critical assembly concentration (CAC) of (17A) EPA, (17B) OPA, and (17C) KPA molecules in water as measured from a Nile Red assay. A fluorescence intensity maximum is shifted from a wavelength of 660 nm to 635 nm as Nile Red dye becomes encapsulated within the supramolecular structures of the peptide amphiphiles (PAs). Blue line represents region of concentrations where Nile Red remains in solution; red line represents region where Nile Red is encapsulated. Data are given as mean±SD (n=3).
Therefore, we assessed the thermodynamic stability of each supramolecular filament system by measuring their critical assembly concentration (CAC) using a Nile Red assay. As shown in FIGS. 17A-C, the CAC values of EPA, OPA, and KPA were measured to be 1 μM, 1.9 μM, and 40 μM, respectively. Data from the Nile Red assay are given in full in FIG. 18. The differences in CAC between the different PAs are likely reflective of differences in electrostatic repulsion between the charged groups of EPA and KPA and steric effects with respect to the size of the OEG groups of the OPA molecule.^74 We find a direct correlation between the CAC value and nebulization stability of the supramolecular filaments with respect to nanostructure integrity and hydrogen bonding interactions. […] As the CAC value represents the propensity of the monomer units to aggregate in solution, increasing the strength of hydrophobic interactions alongside other non-covalent interactions through molecular engineering can result in lower CAC systems, and thus create supramolecular filament systems with enhanced stability during aerosol formation.

[5] = Circular dichroism of filaments before and after nebulization; settings: for CD signal immediately after nebulization, mist / CD signal immediately after nebulization, reservoir: 500 μM, 10 min nebulization; for CD signal immediately after nebulization, mist: filaments collected in the mist; for CD signal immediately after nebulization, reservoir: filaments leftover in the reservoir; for CD signal 2 weeks after nebulization: same solutions aged additional 2 weeks at room temperature
Method: FIGS. 13A-13C show circular dichroism (CD) spectra of the supramolecular filament systems before and immediately after nebulization (solid lines) alongside the same solutions 2 weeks later (dashed lines). All filaments were nebulized at 500 µM for 10 min. Data given are mean spectra for each solution (n=3). (13A) EPA filaments before and after nebulization, showing preservation of β-sheet character during nebulization. (13B) OPA filaments before and after nebulization, showing retention of β-sheet character with a temporary increase in CD signal. (13C) KPA filaments before and after nebulization, showing a transition from β-sheet to random coil for the nebulization group and weakened β-sheet hydrogen bonding for the reservoir group.
While we were able to directly observe filament breakdown in terms of length, we investigated further the impact nebulization may have on the molecular packing of the PA monomers within the supramolecular filaments. FIG. 13 contains the representative circular dichroism (CD) spectra of the three filament systems before and after a 10 min nebulization event of both filaments that exit as mist and those leftover in the reservoir. EPA, OPA, and KPA filaments before nebulization show primarily β-sheet characteristic hydrogen bonding, as evidenced by a negative peak around 220 nm and a positive peak around 197 nm for each system. […] This slightly contrasts from the behavior observed for the EPA filaments and is likely attributed to the potential alignment of OEG chains of OPA from aerosol formation forces, which reduces steric repulsion between OPA monomers. […] This is corroborated by the morphologies observed for the KPA filaments after nebulization, as smaller worm-like micelles and spherical micelles were generated. The strength of the hydrogen-bonding network within the supramolecular filaments is evidently important in the maintenance and stabilization of β-sheet character after nebulization.
To gain insight into the thermodynamic stability of the new assembly states induced by nebulization, we analyzed the CD signal of the same filament solutions after nebulization after aging for an additional 2 weeks in solution at room temperature. […] Additionally, the shorter EPA and OPA filaments are still observed in the nebulized and reservoir groups with TEM imaging after 2 weeks (FIGS. 14 and 15). […] Since a transition back to β-sheet character is not observed for the nebulized group, it is likely that nebulization induces the formation of new metastable assemblies of the KPA monomers, which is corroborated by TEM images of the KPA filaments 2 weeks after nebulization, as the fibril, worm-like micelle, and spherical micelle structures are still observed (FIG. 16).

[6] = Loading capacity of drugs/dye within KPA filaments; settings: encapsulated in KPA filaments, % by mass
Description: FIGS. 20A-20C show (20A) the molecular structure of the lung disease-relevant drugs and fluorescent dye used in loading within the supramolecular filaments: paclitaxel (PTX, MW=853.92 g/mol), the anticancer drug; coumarin 6 (Cou6, MW=350.44 g/mol), the green fluorescent dye; and budesonide (BUD, MW=430.54 g/mol), the anti-inflammatory glucocorticoid used to treat symptoms of asthma and chronic obstructive pulmonary disease (top). (20B) The encapsulation process of hydrophobic drugs and dyes within supramolecular peptide amphiphile (PA)-based filaments, where dissolution of PA monomers and drug/dye in aqueous solutions results in their self-assembly with the drug/dye loaded within the hydrophobic core (left). The loading capacity of PTX, Cou6, and BUD based on mass (left axis, solid bars) and mole (right axis, checkered bars) percent within KPA supramolecular filaments (right). Data are given as mean±SD (n=5). (20C) Representative transmission electron microscopy (TEM) images of KPA filaments loaded with PTX (i, ii), Cou6 (iii, iv), and BUD (v, vi) before and after nebulization at 500 μM. Diameters are given as mean±SD (n=35).
With better insight into nebulization stability and the mechanism of supramolecular filament breakdown, we next sought to assess whether these systems can successfully carry drugs and dyes within aerosol droplets for potential inhalation-based therapies. […]

SMILES	structure/morphology after nebulization (TEM) [1]	average contour length, exiting the nebulizer as a mist [2]	average contour length, leftover in the reservoir [2]	filament breakdown over time (molar scattering rate, DLS) [3]	critical assembly concentration (CAC) [4] [µM]	CD signal immediately after nebulization, mist [5]	CD signal immediately after nebulization, reservoir [5]	CD signal 2 weeks after nebulization [5]	loading capacity by mass within KPA filaments [6] [%]
CCCC1O[C@@H]2C[C@H]3[C@@H]4CCC5=CC(=O)C=C[C@]5(C)[C@H]4[C@@H](O)CC3(C)C2(C(=O)COC(=O)OCCSSC[C@H](NC(C)=O)C(=O)NC(C(=O)N[C@H](C(=O)NC(C(=O)NCC(=O)NCC(=O)NC(CCCCN)C(=O)NC(C(=O)NC(CC(C)C)C(=O)NC(CC(=O)O)C(=O)NCC(=O)NC(CCC(N)=O)C(=O)NC(CC(=O)O)C(=O)N2CCCC2C(N)=O)C(C)C)C(C)C)C(C)C)C(C)C)O1 (some centres unmarked) [CAB-0] (Ac-C(X2)[ξV]V[ξV]GG[ξK][ξV][ξL][ξD]G[ξQ][ξD][ξP]-NH2)	retention of filaments after a nebulization event with shortened length								
CCCCCCCCCCCC(=O)N[C@@H](Cc1ccc(O)cc1)C(=O)NC(C(=O)N[C@H](C(=O)NC(C(=O)NCC(=O)NCC(=O)N[C@@H](CCCCNC(=O)CCOCCOCCOCCOCCOC)C(=O)NC(CCCCNC(=O)CCOCCOCCOCCOCCOC)C(N)=O)C(C)C)C(C)C)C(C)C (some centres unmarked) [OPA] (Lauroyl-Y[ξV]V[ξV]GGK(X1)[ξK](X1)-NH2)	shorter filaments are produced	~174±103 nm	~206±88 nm	consistent breakdown over the course of 10 min	1.9	increased β-sheet signals	increased β-sheet signals	maintained their β-sheet character	
CCCCCCCCCCCC(=O)N[C@@H](Cc1ccc(O)cc1)C(=O)NC(C(=O)N[C@H](C(=O)NC(C(=O)NCC(=O)NCC(=O)N[C@@H](CCCCN)C(=O)NC(CCCCN)C(=O)N[C@@H](CCCCN)C(N)=O)C(C)C)C(C)C)C(C)C (some centres unmarked) [KPA] (Lauroyl-Y[ξV]V[ξV]GGK[ξK]K-NH2)	formation of different morphologies in both populations	~133±108 nm	~196±113 nm	consistent breakdown over the course of 10 min	40	secondary structure transition from β-sheet to random coil character	weakened β-sheet signal	continued to display the weakened β-sheet signal in the reservoir group and the random coil character of the nebulized group	
CCCCCCCCCCCC(=O)N[C@@H](Cc1ccc(O)cc1)C(=O)NC(C(=O)N[C@H](C(=O)NC(C(=O)NCC(=O)NCC(=O)N[C@@H](CCC(=O)O)C(=O)NC(CCC(=O)O)C(=O)N[C@@H](CCC(=O)O)C(N)=O)C(C)C)C(C)C)C(C)C (some centres unmarked) [EPA] (Lauroyl-Y[ξV]V[ξV]GGE[ξE]E-NH2)	maintained their filamentous structure but a notable reduction in length was observed	around 287±147 nm	around 360±177 nm	consistent breakdown over the course of 10 min	1	slightly increased β-sheet signal	no change to their hydrogen bonding	maintained their β-sheet character	
CC(=O)O[C@H]1C(=O)[C@@]2(C)[C@H]([C@H](OC(=O)c3ccccc3)[C@]3(O)C[C@H](OC(=O)[C@H](O)[C@@H](NC(=O)c4ccccc4)c4ccccc4)C(C)=C1C3(C)C)[C@]1(OC(C)=O)CO[C@@H]1C[C@@H]2O [PTX, paclitaxel]									1.5
